Reference: US10125134B2 (Mirati Therapeutics, Inc., priority 2016, dated 2018)
Where two headings read alike, the source gives them in different places.

Columns and labels:
KRas G12C = KRas G12C (Homo sapiens, UniProt P01116, C118S/C51S/C80L/G12C); experiment: KRas G12C Modification Assay (LCMS detection of covalent adduct); format: binding; details: normalized percent of control; tested at 5 μM concentration for 3 hours
How it was run: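 Covalent modification was read by reverse-phase LC/MS of intact protein after compound exposure, each reaction stopped at its time point with 25 mM acetic acid. Unmodified-protein signal, taken as percent of total, was normalised to untreated protein and reported as POC.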

[1] = test system: NCI-H358 cells (express KRas G12C), Phospho-ERK; experiment: Cellular inhibition of KRas G12C: Phospho-ERK in NCI-H358 cells; format: cell-based; details: Homo sapiens, pERK(Thr202/Tyr204) normalized with GAPDH, NCI-H358 cells, 3 hours, read-out: IC50
How it was run: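 IC50 derived by 4-parameter fit of GAPDH-normalized pERK(Thr202/Tyr204) signal, as percent of DMSO control. Signal came from in-cell immunodetection with infrared secondaries after 3 h compound exposure of KRas G12C NCI-H358 cells at 0.5% DMSO.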

POC (KRas G12C) | SMILES | IC50 ([1]; NCI-H358, 3 h) | IC50 [1]
C (“C”>50% POC) | C=CC(=O)N1CCN(c2nc(OC[C@@H]3C[C@@H](O)CN3C)nc3c2CCN(c2ccccc2C(F)(F)F)C3)CC1CC#N (stereo partly drawn) [Example 312, 2-[4-[2-[[(2S,4R)-4-hydroxy-1-methyl-pyrrolidin-2-yl]methoxy]-7-[2-(trifluoromethyl)phenyl]-6,8-dihydro-5H-pyrido[3,4-d]pyrimidin-4-yl]-1-prop-2-enoyl-piperazin-2-yl]acetonitrile] | 0.0001 to 1 µM | –
C (“C”>50% POC) | C=CC(=O)N1CCN(c2nc(OC[C@H]3CCCCN3C)nc3c2CCN(c2cccc4ccccc24)C3)C[C@@H]1CC#N [Example 431, 2-((S)-1-acryloyl-4-(2-(((R)-1-methylpiperidin-2-yl)methoxy)-7-(naphthalen-1-yl)-5,6,7,8-tetrahydropyrido[3,4-d]pyrimidin-4-yl)piperazin-2-yl)acetonitrile] | 0.0001 to 1 µM | –
C (“C”>50% POC) | C=CC(=O)N1CCN(c2nc(OC[C@@H]3CCCN3C)nc3c2CCN(c2cccc4cccc(C)c24)C3)CC1CC#N (stereo partly drawn) [Example 309, 2-(1-acryloyl-4-(7-(8-methylnaphthalen-1-yl)-2-(((S)-1-methylpyrrolidin-2-yl)methoxy)-5,6,7,8-tetrahydropyrido[3,4-d]pyrimidin-4-yl)piperazin-2-yl)acetonitrile] | 0.0001 to 1 µM | –
A (“A”≤25% POC) | C=CC(=O)N1CCN(c2nc(OC[C@@H]3CCCN3C)nc3c2CCN(c2cccc4cnccc24)C3)CC1CC#N (stereo partly drawn) [Example 262, 2-[4-[7-(5-isoquinolyl)-2-[[(2S)-1-methylpyrrolidin-2-yl]methoxy]-6,8-dihydro-5H-1-pyrido[3,4-d]pyrimidin-4-yl]-1-prop-2-enoyl-piperazin-2-yl]acetonitrile] | > 1 µM | –
B (“B”>25% POC−≤50% POC) | C=CC(=O)N1CC2(C1)CN(c1ncnc3c1CC(=O)N(c1cc(O)cc4ccccc14)C3)C2 [Example 114, 4-(6-acryloyl-2,6-diazaspiro[3.3]heptan-2-yl)-7-(3-hydroxynaphthalen-1-yl)-7,8-dihydropyrido[3,4-d]pyrimidin-6(5H)-one] | – | > 1 µM
C (“C”>50% POC) | C=CC(=O)N1CCN(c2nc(OC[C@@H]3CCCN3C)nc3c2CCN(c2c(C)ccc(F)c2C)C3)C[C@@H]1CC#N [Example 349, 2-((S)-1-acryloyl-4-(7-(3-fluoro-2,6-dimethylphenyl)-2-(((S)-1-methylpyrrolidin-2-yl)methoxy)-5,6,7,8-tetrahydropyrido[3,4-d]pyrimidin-4-yl)piperazin-2-yl)acetonitrile] | 0.0001 to 1 µM | –
B (“B”>25% POC−≤50% POC) | C=CC(=O)N1CCN(c2nc(N3CCCC3)nc3c2CCN(c2cc(O)cc4ccccc24)C3)CC1 [Example 119, 1-(4-(7-(3-hydroxynaphthalen-1-yl)-2-(pyrrolidin-1-yl)-5,6,7,8-tetrahydropyrido[3,4-d]pyrimidin-4-yl)piperazin-1-yl)prop-2-en-1-one] | > 1 µM | –
C (“C”>50% POC) | C=CC(=O)N1CCN(c2nc(OCCN3CCCC(F)(F)C3)nc3c2CCN(c2cccc4cccc(Cl)c24)C3)C[C@@H]1CC#N [Example 453, 2-[(2S)-4-[7-(8-chloro-1-naphthyl)-2-[2-(3,3-difluoro-1-piperidyl)ethoxy]-6,8-dihydro-5H-pyrido[3,4-d]pyrimidin-4-yl]-1-prop-2-enoyl-piperazin-2-yl]acetonitrile] | 0.0001 to 1 µM | –
C (“C”>50% POC) | C=CC(=O)N1CCN(c2nc(O[C@H](C)CN(C)C)nc3c2CCN(c2c(C)ccc4[nH]ncc24)C3)CC1CC#N (stereo partly drawn) [Example 152, 2-[4-[2-[(1R)-2-(dimethylamino)-1-methyl-ethoxy]-7-(5-methyl-1H-indazol-4-yl)-6,8-dihydro-5H-pyrido[3,4-d]pyrimidin-4-yl]-1-prop-2-enoyl-piperazin-2-yl]acetonitrile] | – | 0.0001 to 1 µM
